Converted amounts (≈) assume the structure as drawn.
Legend:
Type in all cases: functional, cell-based
A549 = experiment: Cytotoxicity against human A549 cells
SK-OV-3 = experiment: Cytotoxicity against human SKOV3 cells
HCT-15 = experiment: Cytotoxicity against human HCT15 cells
SK-MEL-2 = experiment: Cytotoxicity against human SK-MEL-2 cells
XF498 = experiment: Cytotoxicity against human XF498 cells

Question: Which results are given for `O=C1NCCSSCCNC(=O)/C(=N/O)Cc2ccc(c(Br)c2)Oc2cc(cc(Br)c2O)C/C(=N\O)C(=O)NCCSSCCNC(=O)/C(=N/O)Cc2cc(Br)c(O)c(c2)Oc2ccc(cc2Br)C/C1=N\O` [CYCLOBISPSAMMAPLIN A]?
Answer: EC50 (A549): 1.95 µg/mL (≈ 1.47 µM); EC50 (SK-OV-3): 1.21 µg/mL (≈ 0.913 µM); EC50 (HCT-15): 3.82 µg/mL (≈ 2.88 µM); EC50 (SK-MEL-2): 1.14 µg/mL (≈ 0.861 µM); EC50 (XF498): 2.88 µg/mL (≈ 2.17 µM)

Question: Which EC50 (A549) does the source give for `COc1cccc2c1C(=O)c1c(O)c3c(c(O)c1C2=O)C[C@@](O)(C(=O)CO)C[C@@H]3O[C@H]1C[C@H](N)[C@H](O)[C@H](C)O1` [DOXORUBICIN] here?
Answer: 0.01 µg/mL (≈ 0.0184 µM)

Question: What about the EC50 (SK-OV-3) of the same molecule?
Answer: 0.01 µg/mL (≈ 0.0184 µM)

Question: What about the EC50 (HCT-15) of the same molecule?
Answer: 0.03 µg/mL (≈ 0.0552 µM)

Question: And the EC50 (SK-MEL-2)?
Answer: 0.01 µg/mL (≈ 0.0184 µM)

Question: What about the EC50 (XF498) of the same molecule?
Answer: 0.03 µg/mL (≈ 0.0552 µM)

Question: What does the source list for `CN(C)C(=N)N.CN(C)C(=N)N.O=C(NCCSSCCNC(=O)/C(Cc1ccc(OS(=O)(=O)O)c(Br)c1)=N/O)/C(Cc1ccc(OS(=O)(=O)O)c(Br)c1)=N/O` [PSAMMAPLIN A SULFATE DIGUANIDIUM SALT]?
Answer: EC50 (A549): 12.3 µg/mL; EC50 (SK-OV-3): 1.79 µg/mL; EC50 (HCT-15): 43.2 µg/mL; EC50 (SK-MEL-2): 4.48 µg/mL; EC50 (XF498): 16.9 µg/mL

Question: What does the source list for `O=C(NCCSSCCNC(=O)/C(Cc1ccc(O)c(Br)c1)=N/O)/C(Cc1ccc(OS(=O)(=O)[O-])c(Br)c1)=N\O.[Na+]` [PSAMMAPLIN A SULFATE SODIUM SALT]?
Answer: EC50 (A549): 0.18 µg/mL; EC50 (SK-OV-3): 0.16 µg/mL; EC50 (HCT-15): 1.25 µg/mL; EC50 (SK-MEL-2): 1.13 µg/mL; EC50 (XF498): 0.18 µg/mL

Question: How did the EC50 (A549) turn out when `N#CSCCNC(=O)/C(Cc1ccc(O)c(Br)c1)=N/O` [PSAMMAPLIN B] was run?
Answer: 12.8 µg/mL (≈ 35.8 µM)

Question: What about the EC50 (SK-OV-3) of the same molecule?
Answer: 9.27 µg/mL (≈ 25.9 µM)

Question: And the EC50 (HCT-15)?
Answer: > 30 µg/mL

Question: What about the EC50 (SK-MEL-2) of the same molecule?
Answer: 19.4 µg/mL (≈ 54.2 µM)

Question: What about the EC50 (XF498) of the same molecule?
Answer: 10.9 µg/mL (≈ 30.5 µM)

Question: What does the source list for `NC(=O)C(=O)NCCSSCCNC(=O)/C(Cc1ccc(O)c(Br)c1)=N/O` [PSAMMAPLIN E]?
Answer: EC50 (A549): 1.47 µg/mL (≈ 3.07 µM); EC50 (SK-OV-3): 0.19 µg/mL (≈ 0.396 µM); EC50 (HCT-15): 1.92 µg/mL (≈ 4.01 µM); EC50 (SK-MEL-2): 0.21 µg/mL (≈ 0.438 µM); EC50 (XF498): 1.63 µg/mL (≈ 3.4 µM)

Question: How did the EC50 (A549) turn out when `CS(=O)(=O)CCNC(=O)/C(Cc1ccc(O)c(Br)c1)=N/O` [PSAMMAPLIN I] was run?
Answer: 4.15 µg/mL (≈ 10.9 µM)

Question: And the EC50 (SK-OV-3)?
Answer: 1.76 µg/mL (≈ 4.64 µM)

Question: And the EC50 (HCT-15)?
Answer: 6.51 µg/mL (≈ 17.2 µM)

Question: And the EC50 (SK-MEL-2)?
Answer: 2.84 µg/mL (≈ 7.49 µM)

Question: And the EC50 (XF498)?
Answer: 2.96 µg/mL (≈ 7.81 µM)

Question: Which EC50 (A549) does the source give for `COC(=O)CCNC(=O)/C(Cc1ccc(O)c(Br)c1)=N/O` [PSAMMAPLIN M] here?
Answer: > 30 µg/mL

Question: And the EC50 (SK-OV-3)?
Answer: > 30 µg/mL

Question: What about the EC50 (HCT-15) of the same molecule?
Answer: > 30 µg/mL

Question: And the EC50 (SK-MEL-2)?
Answer: > 30 µg/mL

Question: And the EC50 (XF498)?
Answer: > 30 µg/mL

— ChEMBL document CHEMBL1141012, “Cytotoxic bromotyrosine derivatives from a two-sponge association of Jaspis sp. and Poecillastra sp” (Bioorg Med Chem Lett, 2008)
